From US7101568B2, “Methods and compositions for treating solid tumors” (Guilford Pharmaceuticals, Inc., priority 1999, dated 2006)

Tests used:
A549 tumor nodules = assay: Murine tumor nodule model, A549 tumor volume doubling time; type: in vivo, mouse; settings: A549, 24 mg/kg paclitaxel
Description: Athymic nude Balb/c mice were engrafted with human non-small cell lung cancer cell lines (A549 and H1299, both of which were obtained from the American Type Culture Collection).
(§1) The cells were grown to confluence in DMEM/F12 medium (Mediatech, Herndon, Va.) supplemented with 10% fetal bovine serum (“growth medium”) under antibiotic-free conditions at 37° in a 5% CO2 atmosphere. After growing under standard these tissue culture conditions, the cells were enzymatically detached, enumerated, and the concentration was adjusted as required.
(§2) The cells were mixed 1:1 with Matrigel™ as an enhancer for engraftment, and 2×10^6 cells were injected subcutaneously on the flanks. Tumors were allowed to grow until achieving a volume of approximately 200-400 mm^3, as determined by the formula: Tumor volume=(length)×(width)×(height) The dimensions of the tumor on each test animal were measured directly with calipers.
Various formulations of paclitaxel were administered to the test animals bearing tumors, either systemically or intratumorally. Each animal was weighed at the time of treatment so that dosages could be adjusted to achieve the mg/kg amounts reported. Systemic administration was achieved by injecting the test composition into the intraperitoneal cavity of the test animal. For intraperitoneal (“IP”) injections, the animals received a total injection volume of approximately 1 mL.
Intratumoral administration (“IT”), on the other hand, was accomplished by the following procedure: • (1) injecting a single volume of about 100 μl (0.1 mL) the test composition into the center of the tumor nodule with a 21-25 gauge needle over a time period of about 10-20 seconds; • (2) infusing the volume over about 10-15 seconds, and then leaving the needle in place for an additional time of about 10-20 seconds; and • (3) withdrawing the needle. Following the treatments, all mice were tagged, and the tumors were measured three times weekly with calipers. Test animals were also weighed once weekly.
The tumor volume doubling time was determined from the tumor measurements in all treatment groups.

H1299 tumor nodules = assay: Murine tumor nodule model, H1299 tumor volume doubling time; type: in vivo, mouse; settings: H1299, 24 mg/kg paclitaxel
Description: A murine tumor nodule model, a widely used and accepted model for investigating the efficacy of therapies for solid tumors, was used to establish the utility of sustained release for solid tumors. Athymic nude Balb/c mice were engrafted with human non-small cell lung cancer cell lines (A549 and H1299, both of which were obtained from the American Type Culture Collection).
as §1, §2
Various formulations of paclitaxel were administered to the test animals bearing tumors, either systemically or intratumorally. Each animal was weighed at the time of treatment so that dosages could be adjusted to achieve the mg/kg amounts reported. […]
Intratumoral administration (“IT”), on the other hand, was accomplished by the following procedure: • (1) injecting a single volume of about 100 μl (0.1 mL) the test composition into the center of the tumor nodule with a 21-25 gauge needle over a time period of about 10-20 seconds; • (2) infusing the volume over about 10-15 seconds, and then leaving the needle in place for an additional time of about 10-20 seconds; and • (3) withdrawing the needle. Following the treatments, all mice were tagged, and the tumors were measured three times weekly with calipers. […]
Time-dependent changes in H1299 tumor nodule growth and/or sizes following different treatments were determined. […]

[1] = intratumoral, listed as conventional paclitaxel

CC(=O)O[C@H]1C(=O)[C@@]2(C)[C@H]([C@H](OC(=O)c3ccccc3)[C@]3(O)C[C@H](OC(=O)[C@H](O)[C@@H](NC(=O)c4ccccc4)c4ccccc4)C(C)=C1C3(C)C)[C@]1(OC(C)=O)CO[C@@H]1C[C@@H]2O [conventionally formulated paclitaxel, paclitaxel]
tumor volume doubling time (A549 tumor nodules; intraperitoneal): 11.5 ± 2.3 days
tumor volume doubling time (A549 tumor nodules; intratumoral): 10.2 ± 4.7 days
tumor volume doubling time (A549 tumor nodules; [1]): 10 days
tumor volume doubling time (H1299 tumor nodules; intraperitoneal): 12 ± 1.9 days
tumor volume doubling time (H1299 tumor nodules; intratumoral): 11.2 ± 1.9 days
tumor volume doubling time (H1299 tumor nodules; [1]): 11 days
